These results are taken from PMC11855827, “High-Throughput Screening of Five Compound Libraries for Anthelmintic Activity and Toxicity Leads to the Discovery of Two Flavonoid Compounds” (International Journal of Molecular Sciences, 2025).

The test system of the assay is C. elegans.
Where [1] appears, read: Table S2, C. elegans SS assay, 110 μM, 0 h, averages of 4 data points.
[2] abbreviates: Table S2, C. elegans SS assay, 110 μM, 24 h, averages of 4 data points.

Structures are written as SMILES. Where “and” joins values, the source holds several entries; their conditions need not be identical. Equal values may be shown once. Read-outs that look alike come from different tables or passages of the source.

As to `C[C@@]1(F)[C@H](O)[C@@H](CO)O[C@H]1n1ccc(=O)[nH]c1=O` [PSI‐6206], the “Percentage of motility inhibition 0 h” value under setting [1] was 19%. Moreover, the “Percentage of motility inhibition 24 h” value under setting [2] turned out to be 5%.
In the case of `CC(=O)O[C@H]1C(=O)[C@@]2(C)[C@H]([C@H](OC(=O)c3ccccc3)[C@]3(O)C[C@H](OC(=O)[C@H](O)[C@@H](NC(=O)c4ccccc4)c4ccccc4)C(C)=C1C3(C)C)[C@]1(OC(C)=O)CO[C@@H]1C[C@@H]2O` [Paclitaxel], the “Percentage of motility inhibition 0 h” value under setting [1] is 18% and 29%. For the same compound, the “Percentage of motility inhibition 24 h” value under setting [2] was 12% and 23%.
As to `CSC(=O)OCC1=C[C@@H]2OC(=O)C3=CO[C@@H](O[C@@H]4O[C@H](CO)[C@@H](O)[C@H](O)[C@H]4O)[C@H]1[C@@H]32` [Paederoside], the “Percentage of motility inhibition 0 h” value under setting [1] stood at 9%. In addition, under setting [2], the “Percentage of motility inhibition 24 h” value is recorded as 4%.
For the compound `CSC(=O)OCC1=C[C@H](O)[C@H]2C(C(=O)O)=CO[C@@H](O[C@@H]3O[C@@H](CO)[C@@H](O)[C@@H](O)[C@H]3O)[C@H]12` [Paederosidic acid], the “Percentage of motility inhibition 0 h” value under setting [1] is recorded as 0%. For the same compound, the “Percentage of motility inhibition 24 h” value under setting [2] is recorded as 0%.
With `COc1cc2c(cc1OC)-c1cc3ccc(OC)c(OC)c3c[n+]1CC2.[Cl-]` [Palmatine (chloride)], under setting [2], the “Percentage of motility inhibition 24 h” value is 0%.
As to `COc1cc2c(cc1OC)-c1cc3ccc(OC)c(OC)c3c[n+]1CC2.[OH-]` [Palmatine (hydroxide)], under setting [1], the “Percentage of motility inhibition 0 h” value turned out to be 1%. Also, under setting [2], the “Percentage of motility inhibition 24 h” value was 0%.
The like results for `COc1cc2c(cc1OC)-c1cc3ccc(OC)c(O)c3c[n+]1CC2.[OH-]` [Palmaturbine (hydroxide)] were, in that order, 0% and 8%.
Turning to `O=c1c(O[C@@H]2O[C@H](CO)[C@H](O)[C@H](O)[C@H]2O[C@@H]2O[C@H](CO)[C@@H](O)[C@H](O)[C@H]2O)c(-c2ccc(O)cc2)oc2cc(O)cc(O)c12` [Panasenoside], under setting [1], the “Percentage of motility inhibition 0 h” value amounted to 6%. Besides, the “Percentage of motility inhibition 24 h” value under setting [2] stood at 31%.
As to `O=C(CC(O)(CC(=O)OCc1ccc(OC2OC(CO)C(O)C(O)C2O)cc1)C(=O)OCc1ccc(OC2OC(CO)C(O)C(O)C2O)cc1)OCc1ccc(OC2OC(CO)C(O)C(O)C2O)cc1` (centres unmarked) [Parishin], the “Percentage of motility inhibition 0 h” value under setting [1] turned out to be 0%. Under setting [2], the “Percentage of motility inhibition 24 h” value is listed as 12%.
The like results for `NC[C@@H]1O[C@H](O[C@H]2[C@@H](O)[C@H](O[C@@H]3[C@@H](O)[C@H](N)C[C@H](N)[C@H]3O[C@H]3O[C@H](CO)[C@@H](O)[C@H](O)[C@H]3N)O[C@@H]2CO)[C@H](N)[C@@H](O)[C@@H]1O.O=S(=O)(O)O` [Paromomycin (sulfate)] were, in that order, 14% and 2%.
In the case of `C[C@H]1CC[C@@]2(O)C(C)(C)[C@@H]3CC[C@@]2(C)[C@H]1C3` [Patchouli alcohol], under setting [1], the “Percentage of motility inhibition 0 h” value was determined as 24%. Further, the “Percentage of motility inhibition 24 h” value under setting [2] turned out to be 35%.
On to `CS(=O)(=O)O.C[C@H]1COc2c(C3(N)CC3)c(F)cc3c(=O)c(C(=O)O)cn1c23` [Pazufloxacin (mesylate)], for which the “Percentage of motility inhibition 0 h” value under setting [1] turned out to be 28%. Besides, under setting [2], the “Percentage of motility inhibition 24 h” value is 2%.
Turning to `CCn1cc(C(=O)O)c(=O)c2cc(F)c(N3CCN(C)CC3)cc21.CS(=O)(=O)O` [Pefloxacin (mesylate)], under setting [1], the “Percentage of motility inhibition 0 h” value is 9%. Also, the “Percentage of motility inhibition 24 h” value under setting [2] is given as 8%.
In the same order, the values of `C[C@H]1CC[C@@H]2N(C1)C[C@H]1[C@@H]3C[C@H]4[C@@H](C[C@H](O)[C@H]5C[C@@H](O)CC[C@@]54C)[C@@H]3CC[C@@H]1[C@]2(C)O` [Peimine] are 7% and 0%.
With `C[C@H]1CCC2N(C1)C[C@H]1C3CC4[C@@H](CC(=O)C5C[C@@H](O)CC[C@@]54C)C3CCC1[C@]2(C)O` (some centres unmarked) [Peiminine], the “Percentage of motility inhibition 0 h” value under setting [1] was found to be 0%. Further, under setting [2], the “Percentage of motility inhibition 24 h” value came to 19%.
Take `CC1=C2C[C@H]3[C@@H](CC(=O)[C@H]4C[C@@H](O)CC[C@@]43C)[C@@H]2CC[C@]12O[C@@H]1C[C@H](C)CN[C@H]1[C@H]2C` [Peimisine]: the “Percentage of motility inhibition 0 h” value under setting [1] was determined as 0%. Besides, the “Percentage of motility inhibition 24 h” value under setting [2] is listed as 0%.
On to `CC1(C)S[C@@H]2[C@H](NC(=O)Cc3ccccc3)C(=O)N2[C@H]1C(=O)[O-].[K+]` [Penicillin G (potassium)], for which, under setting [1], the “Percentage of motility inhibition 0 h” value came to 14%. For the same compound, the “Percentage of motility inhibition 24 h” value under setting [2] is on record as 8%.
As for `CC1(C)S[C@@H]2[C@H](NC(=O)COc3ccccc3)C(=O)N2[C@H]1C(=O)[O-].[K+]` [Penicillin V (Potassium)], the “Percentage of motility inhibition 0 h” value under setting [1] is on record as 23%. The “Percentage of motility inhibition 24 h” value under setting [2] was 24%.
As to `N=C(N)c1ccc(OCCCCCOc2ccc(C(=N)N)cc2)cc1.O=S(=O)(O)CCO.O=S(=O)(O)CCO` [Pentamidine (isethionate)], the “Percentage of motility inhibition 0 h” value under setting [1] is reported as 0%. For the same compound, under setting [2], the “Percentage of motility inhibition 24 h” value worked out at 0%.
Turning to `CCC(CC)[C@H](NC(C)=O)[C@@H]1[C@H](O)[C@@H](C(=O)O)C[C@H]1NC(=N)N.O.O.O` [Peramivir (trihydrate)], the “Percentage of motility inhibition 0 h” value under setting [1] amounted to 2%. Under setting [2], the “Percentage of motility inhibition 24 h” value turned out to be 0%.
The like results for `C=C(C)[C@@H]1CC=C(CO)CC1` [Perillyl alcohol] were, in that order, 0% and 6%.
In the same order, the values of `COc1cc2c(cc1O)C[C@H]1c3cc(O)c(OC)cc3CC[N+]1(C)C2.[Cl-]` (some centres unmarked) [Phellodendrine (chloride)] are 25% and 7%.
The like results for `CC(C)C[C@H](NP(=O)([O-])O[C@H]1O[C@H](C)[C@@H](O)[C@H](O)[C@@H]1O)C(=O)N[C@@H](Cc1c[nH]c2ccccc12)C(=O)[O-].[Na+].[Na+]` [Phosphoramidon (Disodium)] were, in that order, 19% and 7%.
Regarding `CNC(=O)Oc1ccc2c(c1)[C@]1(C)CCN(C)[C@@H]1N2C.O=C(O)c1ccccc1O` [Physostigmine (salicylate)], where the note is “110 µM”, the “Percentage of motility inhibition 0 h” value was 0% and the “Percentage of motility inhibition 24 h” value is given as 0%.
As for `COC(=O)[C@@]1(C)CC[C@]2(C(=O)O)CC[C@]3(C)C(=CC[C@@H]4[C@@]5(C)C[C@H](O)[C@H](O)[C@@](C)(CO)[C@@H]5CC[C@]43C)[C@@H]2C1` [Phytolaccagenin], under setting [1], the “Percentage of motility inhibition 0 h” value was found to be 5%. Moreover, the “Percentage of motility inhibition 24 h” value under setting [2] was 15%.
`CC(C)C1=CC(=O)[C@@](C)([C@H]2[C@H](O)C[C@@]3(C)[C@@H]4CC=C5[C@@H](CC[C@@H](O[C@@H]6OC[C@@H](O)[C@H](O)[C@H]6O[C@@H]6O[C@@H](C)[C@H](O)[C@@H](O)[C@H]6O)C5(C)C)[C@]4(C)C(=O)C[C@]23C)O1` [Picfeltarraenin IA]: under setting [1], the “Percentage of motility inhibition 0 h” value is given as 5%. Further, under setting [2], the “Percentage of motility inhibition 24 h” value came to 2%.
With `CC(C)C1=CC(=O)C(C)(C2C(O)CC3(C)C4CC=C5C(CCC(OC6OC(CO)C(O)C(O)C6OC6OC(C)C(O)C(O)C6O)C5(C)C)C4(C)C(=O)CC23C)O1` (centres unmarked) [Picfeltarraenin IB], the “Percentage of motility inhibition 0 h” value under setting [1] turned out to be 0%. Also, the “Percentage of motility inhibition 24 h” value under setting [2] was 34%.
